From US20150342853A1, “Topical Lightening Composition and Methods of Use Thereof” (Avon Products, Inc., priority 2014, published 2015)

Test: in vitro test of lightening of synthetic melanin (absorbance at 405 nm)
Assay type: biochemical
Conditions: melanin absorbance at 405 nm relative to vehicle control, two weeks
Protocol: Fabiana imbricata extract (having between 15,000 and 30,000 units/g of glucose oxidase activity) was examined for its ability to lighten melanin in an in vitro test. A solution of synthetic melanin at a concentration of 0.025% in dimethyl sulfoxide was prepared. 1 ml was added to each well of a 24-well plate. A 1% stock solution of Fabiana imbricata extract was prepared in phosphate-buffered saline and diluted serially at a ratio of 1:2 yielding 0.5%, 0.25% and 0.125% solutions of Fabiana imbricata extract. Solutions of glucose were prepared similarly. 10 microliters of each concentration of Fabiana imbricata extract was added along with 10 microliters of glucose to 1 ml of the melanin solution in each well of the microplate. Each concentration was tested in triplicate. Three wells received the phosphate-buffered saline as vehicle control. Hydrogen peroxide at 0.3, 0.03 and 0.003% was added to 3 wells each as positive control. The microplate was incubated at room temperature and treatments described above were repeated for a total of ten times over two weeks. At the end of the incubation period, melanin absorbance was measured at 405 nm using a spectrophotometer. Results are summarized in the table below as percent of melanin absorbance relative to vehicle control. A lower absorbance indicates lightening of melanin.

SMILES: OO [Example H2O2, Hydrogen peroxide]
- % Relative Absorbance (0.003% H2O2 positive control): 87.5%
- % Relative Absorbance (0.03% H2O2 positive control): 70.6%
- % Relative Absorbance (0.3% H2O2 positive control): 30.6%
